Positions of bridges follow the written chain, without caps; N, C: chain ends. No end group written: not given here.
Key:
[1] = tested on: antibodies which have binding specificity for cyclic analogs of hPTH (HRP-labeled anti-C-terminal antibody plus biotinylated anti-N-terminal antibody); test: two-site sandwich ELISA for [Leu^27]cyclo(Glu^22-Lys^26)hPTH-(1-31); parameters: species or system rabbit; details: for detection in the two-site sandwich ELISA (cross-reaction), OD at 450 nm: peptides at 10,000, 1,000 and 100 pg/ml in BSA based buffer matrix, FIG. 3
Description: Streptavidin was weighed and diluted to 20 mg/L with phosphate buffer, 0.2 ml of this solution was added to each well of Corning® 96 Well Polystyrene Microplate. The plates were incubated at room temperature for 18-22 hours. The plates were then washed and a stabile/blocking buffer containing BSA was added. The plates were again incubated at room temperature for four hours. The plates were finally dried at <30% humidity. […] The peptide was diluted with a bovine serum albumin and normal bovine serum based buffer matrix to a final concentration of 1600 pg/ml, 400 pg/ml, 100 pg/ml, 25 pg/ml and 6 pg/ml. […] The above antigen and antibodies were incubated in the streptavidin coated well for 3 hours at room temperature with shaking at 170 rpm. After incubation, each well was washed with an ELISA wash buffer. 200 μL of tetra methyl benzidine (TMB) was then added into each well. The wells were incubated for 20 min at room temperature and then 100 μL of a stop solution was added into each well. The Microplates were read with a microtiter plate reader (VERSAmaxTM, Molecular Device, Inc.) at an absorption wavelength of 450 nm. A standard curve was obtained by plotting the optical density (OD) at 450 nm against the correspondent Ostabolin-C standard concentration. […] The OD at 450 nm values were read by a microtiter plate reader ([…], Molecular Device, Inc.) (FIG. 3).

ovariectomized rat model = details: cited from earlier work
adenylyl cyclase (AC) = details: cited from earlier work

Substance	standard curve, optical density (OD) at 450 nm against standard concentration ([1]; peptide standards 1600, 400, 100, 25 and 6 pg/ml, FIG. 2)	detection in the two-site sandwich ELISA (cross-reaction), OD at 450 nm [1]	restoration of bone loss (ovariectomized rat model)	AC stimulating activity (adenylyl cyclase (AC))
[Leu^27]cyclo(Glu^22-Lys^26)hPTH-(1-31) (SVSEIQLMHNLGKHLNSMERVEWLRKLLQDV-NH2; lactam 22-26; N-terminus assumed; SMILES CC[C@H](C)[C@H](NC(=O)[C@H](CCC(=O)O)NC(=O)[C@H](CO)NC(=O)[C@@H](NC(=O)[C@@H](N)CO)C(C)C)C(=O)N[C@@H](CCC(N)=O)C(=O)N[C@@H](CC(C)C)C(=O)N[C@@H](CCSC)C(=O)N[C@@H](Cc1c[nH]cn1)C(=O)N[C@@H](CC(N)=O)C(=O)N[C@@H](CC(C)C)C(=O)NCC(=O)N[C@@H](CCCCN)C(=O)N[C@@H](Cc1c[nH]cn1)C(=O)N[C@@H](CC(C)C)C(=O)N[C@@H](CC(N)=O)C(=O)N[C@@H](CO)C(=O)N[C@@H](CCSC)C(=O)N[C@@H](CCC(=O)O)C(=O)N[C@@H](CCCNC(=N)N)C(=O)N[C@H](C(=O)N[C@H]1CCC(=O)NCCCC[C@@H](C(=O)N[C@@H](CC(C)C)C(=O)N[C@@H](CC(C)C)C(=O)N[C@@H](CCC(N)=O)C(=O)N[C@@H](CC(=O)O)C(=O)N[C@H](C(N)=O)C(C)C)NC(=O)[C@H](CCCNC(=N)N)NC(=O)[C@H](CC(C)C)NC(=O)[C@H](Cc2c[nH]c3ccccc23)NC1=O)C(C)C) [cyclic analog of hPTH, cyclized between Glu^22 and Lys^26]	dose responsive standard curve	dose responsive manner	–	–
hPTH-(1-31)	–	not able to detect	–	–
hPTH-(1-31)-NH2	–	–	fully active	has only AC stimulating activity
hPTH-(1-34)	–	not able to detect	–	–
hPTH-(1-84)	–	not able to detect	–	–
